Our source for the IC50 values is patent US7507727B2, “Substituted quinobenzoxazine analogs and methods of using thereof” (Cylene Pharmaceuticals, Inc., priority 2003, dated 2009).

pIC50: −log10 of the molar value.

The target of the first experiment is c-Myc template DNA (c-myc quadruplex). In words: Quadruplex binding / stop assay (Taq polymerase arrest, capillary electrophoresis). The note with it: read-out: S DATA; Table 1D, stop assay data.
`CN1CCCC1CCNC(=O)c1cn2c3c(c(N4CCC(N)CC4)c(F)cc3c1=O)Oc1cc3ccccc3cc1-2` (centres unmarked) [compound 1616]: the pIC50 is 5.76.

For the compound `CC(C)N1CCN(c2c(F)cc3c(=O)c(C(=O)NCCN4CCOCC4)cn4c3c2Oc2ccc(Cl)cc2-4)CC1` [compound 1804], the pIC50 is under 4.82.

As for `CN1CCCC1CCNC(=O)c1cn2c3c(c(/N=C4\CCCCN4)c(F)cc3c1=O)Oc1cc3ccccc3cc1-2` (centres unmarked) [compound 1482], the pIC50 was 5.76. On to `COC(=O)N[C@H]1CCN(c2c(F)cc3c(=O)c(C(=O)NCCC4CCCN4C)cn4c3c2Oc2cc3ccccc3cc2-4)C1` (some centres unmarked) [compound 1515], for which the pIC50 is under 4.82. Same read-out and setting: the figure for `CCN(CC)CCCC(C)Nc1c(F)cc2c(=O)c(C(=O)NCCC3CCCN3C)cn3c2c1Oc1cc2ccccc2cc1-3` (centres unmarked) [compound 1499] is 6.12.

In the case of `CN1CCCC1CCNC(=O)c1cn2c3c(c(NCC4CC(C)(C)N(O)C4(C)C)c(F)cc3c1=O)Oc1cc3ccccc3cc1-2` (centres unmarked) [compound 1668], the pIC50 was 6.43.

Regarding `CC(C)C(=O)N1CCN(c2c(F)cc3c(=O)c(C(=O)NCCN4CCCC4)cn4c3c2Oc2cc(Cl)ccc2-4)CC1` [compound 1823], the pIC50 was 5.00. With `CN1CCCC1CCNC(=O)c1cn2c3c(c(F)c(F)cc3c1=O)Oc1cc3ccccc3cc1-2` (centres unmarked) [compound 1739], the pIC50 was 5.48.

For `CN1CCCC1CCNC(=O)c1cn2c3c(c(N4CCC(c5ccccn5)C4)c(F)cc3c1=O)Oc1cc3ccccc3cc1-2` (centres unmarked) [compound 1507], the pIC50 is 6.12. Same read-out and setting: under `N=C(N)NCCCCNC(=O)c1cn2c3c(c(NCCCN4CCOCC4)c(F)cc3c1=O)Oc1cc3ccccc3cc1-2` [compound 1650] stands 6.00; under `CC(C)N1CCN(c2c(F)cc3c(=O)c(C(=O)NCCCN4CCOCC4)cn4c3c2Oc2cc(Cl)ccc2-4)CC1` [compound 1792], under 4.82; under `CN1CCN(C(=O)c2cn3c4c(c(NCCN5CCOCC5)c(F)cc4c2=O)Oc2ccccc2-3)CC1` [compound 1614], under 4.82.

Regarding `CN1CCCC1CCN(CC[C@@H]1CCCN1C)C(=O)c1cn2c3c(c(N4CCC(c5cnccn5)C4)c(F)cc3c1=O)Oc1cc3ccccc3cc1-2` (some centres unmarked) [compound 1754], the pIC50 was 5.30.

With `CC(=O)N1CCN(c2c(F)cc3c(=O)c(C(=O)NCCN4CCCC4)cn4c3c2Oc2cc(Cl)ccc2-4)CC1` [compound 1812], the pIC50 was 5.49. Same read-out and setting: under `CN1CCCC1CCNC(=O)c1cn2c3c(c(NC(=O)C4CNCCN4)c(F)cc3c1=O)Oc1cc3ccccc3cc1-2` (centres unmarked) [compound 1505] stands under 4.82; under `CN(C)CC(C)(C)CNC(=O)c1cn2c3c(c(N4CCC(N)C4)c(F)cc3c1=O)Oc1ccccc1-2` (centres unmarked) [compound 1625], under 4.82. On the same count and under the same terms, under `CN1CCCC1CCNC(=O)c1cn2c3c(c(NC4CC(C)(C)NC(C)(C)C4)c(F)cc3c1=O)Oc1cc3ccccc3cc1-2` (centres unmarked) [compound 1478] stands 6.00; under `CCOCCCNC(=O)c1cn2c3c(c(N4CCC(N)C4)c(F)cc3c1=O)Oc1cc3ccccc3cc1-2` (centres unmarked) [compound 1697], under 4.82; under `CN(C)c1cccc(CNC(=O)c2cn3c4c(c(N5CCC(N)C5)c(F)cc4c2=O)Oc2cc4ccccc4cc2-3)c1` (centres unmarked) [compound 1714], under 4.82. Still for that read-out and setting: under `CN1CCCC1CCNC(=O)c1cn2c3c(c(NCCCCCO)c(F)cc3c1=O)Oc1cc3ccccc3cc1-2` (centres unmarked) [compound 1658] stands 5.76; under `O=C(NCCN1CCCC1)c1cn2c3c(c(NCC4CCCO4)c(F)cc3c1=O)Oc1cc3ccccc3cc1-2` (centres unmarked) [compound 1734], 5.52.

In the case of `CN(C)CCCCNC(=O)c1cn2c3c(c(NCCCN4CCN(C)CC4)c(F)cc3c1=O)Oc1ccccc1-2` [compound 1578], the pIC50 was under 4.82. `CN(C)CCCCNC(=O)c1cn2c3c(c(N4CCC(NC(=O)OC(C)(C)C)C4)ccc3c1=O)Oc1cc3ccccc3cc1-2` (centres unmarked) [compound 1539]: the pIC50 is 6.12. For the compound `O=C(NCCN1CCCC1)c1cn2c3c(c(N4CCC(c5cnccn5)C4)ccc3c1=O)Oc1cc3ccccc3cc1-2` (centres unmarked) [compound 1723], the pIC50 is 5.82. Turning to `O=C(NCCN1CCCC1)c1cn2c3c(c(NCCCN4CCOCC4)ccc3c1=O)Oc1cc3ccccc3cc1-2` [compound 1528], the pIC50 is 5.76. Same read-out and setting: the figure for `CC(C)(C)OC(=O)NC1CCN(C(=O)c2cn3c4c(c(NCCN5CCCC5)c(F)cc4c2=O)Oc2ccccc2-3)C1` (centres unmarked) [compound 1595] is under 4.82.

As for `NCCCCNC(=O)c1cn2c3c(c(NCCN4CCOCC4)c(F)cc3c1=O)Oc1ccccc1-2` [compound 1611], the pIC50 is under 4.82. Turning to `CN1CCCC1CCNC(=O)c1cn2c3c(c(SCCc4cnccn4)c(SCCc4cnccn4)cc3c1=O)Oc1cc3ccccc3cc1-2` (centres unmarked) [compound 1774], the pIC50 is 5.24.

Still in this experiment, the particulars now being: read-out: Stop Data c-Myc μM; concentration at which 50% of the DNA was arrested (arrested:full-length 1:1).
On to `O=C(NCCCN1CCOCC1)c1cn2c3cc4oc5cc([N+](=O)[O-])ccc5[nH]c4cc3oc3c(NCCCN4CCOCC4)c(F)cc(c1=O)c32` [compound 415], for which the IC50 was found to be 0.75 µM. Same read-out and setting: under `CN1CCCC1CCNc1ccc2c(=O)c(C(=O)NCCCN3CCOCC3)cn3c2c1Oc1cc2ccccc2cc1-3` (centres unmarked) [compound 269] stands 1.75 µM; under `CN1CCCC1CCNC(=O)c1cn2c3c(c(NC(=O)C4CCCNC4)c(F)cc3c1=O)Oc1cc3ccccc3cc1-2` (centres unmarked) [compound 251], 1.75 µM. The same measure, in the same setting: the figure for `CN1CCCC1CCNC(=O)c1cn2c3c(c(N4CCC(c5ccccn5)C4)c(F)cc3c1=O)Oc1cc3ccccc3cc1-2` (centres unmarked) [compound 442] is 0.75 µM; for `O=C(O)c1cn2c3cc4oc5cc([N+](=O)[O-])ccc5[nH]c4cc3oc3c(NCCN4CCCC4)c(F)cc(c1=O)c32` [compound 17] it is 0.75 µM; for `O=C(NCCN1CCCC1)c1cn2c3c(c(F)c(F)cc3c1=O)Oc1cc3c(cc1-2)oc1ccccc13` [compound 113] it is 1.75 µM. Consider `CN1CCCC1CCNC(=O)c1cn2c3c(c(N4CCC(N)C4)c(F)c(N)c3c1=O)Oc1cc3ccccc3cc1-2` (centres unmarked) [compound 234], for which the IC50 amounted to 1.75 µM. On the same count and under the same terms, the figure for `NCCCNC(=O)c1cn2c3c(c(N4CCC(N)C4)c(F)cc3c1=O)Oc1cc3ccccc3cc1-2` (centres unmarked) [compound 466] is 0.75 µM; for `CN1CCCC1CCNC(=O)c1cn2c3c(c(N4CCC(N5CCCC5)CC4)c(F)cc3c1=O)Oc1cc3ccccc3cc1-2` (centres unmarked) [compound 434] it is 0.75 µM. Same read-out and setting: the figure for `CN(C)CCCCNc1c(F)cc2c(=O)c(C(=O)NCCCN3CCOCC3)cn3c4cc5oc6cc([N+](=O)[O-])ccc6[nH]c5cc4oc1c23` [compound 556] is 0.375 µM.

Consider `O=C(NCCN1CCCC1)c1cn2c3c(c(N4CCC(c5cnccn5)C4)c(F)cc3c1=O)Oc1cc3ccccc3cc1-2` (centres unmarked) [compound 462], for which the IC50 was 0.75 µM.

Turning to `CN1CCN(CCCNC(=O)c2cn3c4c(c(NCCCN5CCOCC5)c(F)cc4c2=O)Oc2cc4c(cc2-3)oc2ccccc24)CC1` [compound 144], the IC50 was found to be 1.75 µM. On the same count and under the same terms, under `CN1CCCC1CCNc1ccc2c(=O)c(C(=O)NC3CC(C)(C)NC(C)(C)C3)cn3c2c1Oc1cc2ccccc2cc1-3` (centres unmarked) [compound 270] stands 1.75 µM; under `CN(C)CCCCNC(=O)c1cn2c3c(c(NCCN4CCCC4)c(F)cc3c1=O)Oc1cc3c(cc1-2)oc1ccccc13` [compound 161], 1.75 µM; under `NC1CCN(c2c(F)cc3c(=O)c(C(=O)NCCN4CCCCC4)cn4c3c2Oc2cc3ccccc3cc2-4)C1` (centres unmarked) [compound 195], 1.75 µM.

As for `CN(C)CCCCNc1c(F)cc2c(=O)c(C(=O)NCCCN3CCN(C)CC3)cn3c4cc5c(=O)c6ccccc6c(=O)c5cc4oc1c23` [compound 171], the IC50 was 1.75 µM. On the same count and under the same terms, the figure for `O=C(NCCCN1CCOCC1)c1cn2c3c(c(NCCN4CCCC4)c(F)cc3c1=O)Oc1c-2ccc2ccccc12` [compound 137] is 1.75 µM; for `CN1CCC[C@@H]1CCNC(=O)c1cn2c3c(c(N4CCC(c5cnccn5)C4)c(F)cc3c1=O)Oc1cc3ccccc3cc1-2` (some centres unmarked) [compound 356] it is 0.85 µM. In the case of `CN1CCN(CCCNC(=O)c2cn3c4c(c(N5CC[C@@H](NC(=O)CCN6CCN(C)CC6)C5)c(F)cc4c2=O)Oc2cc4c(cc2-3)oc2ccccc24)CC1` [compound 173], the IC50 was determined as 1.75 µM. Same read-out and setting: under `O=C(NCCN1CCCC1)c1cn2c3c(c(NCCCN4CCOCC4)ccc3c1=O)Oc1cc3ccccc3cc1-2` [compound 272] stands 1.75 µM; under `CN1CCCC1CCNC(=O)c1cn2c3c(c(NCC4CCNCC4)c(F)cc3c1=O)Oc1cc3ccccc3cc1-2` (centres unmarked) [compound 252], 1.75 µM; under `CN1CCN(CCCNC(=O)c2cn3c4c(c(N5CCC(N)C5)c(F)cc4c2=O)Oc2ccccc2-3)CC1` (centres unmarked) [compound 459], 0.75 µM. On the same count and under the same terms, the figure for `CN(C)CCCCNc1c(F)cc2c(=O)c(C(=O)O)cn3c4cc5oc6cc(N)ccc6[nH]c5cc4oc1c23` [compound 21] is 0.75 µM; for `O=C(CCN1CCCCC1)N[C@@H]1CCN(c2c(F)cc3c(=O)c(C(=O)NCCN4CCOCC4)cn4c3c2Oc2cc3c(cc2-4)oc2ccccc23)C1` [compound 319] it is 1 µM; for `O=C(O)c1cn2c3cc4c(cc3oc3c(F)c(F)cc(c1=O)c32)c(=O)c1ccccc14` [compound 320] it is 1 µM.

Regarding `O=C(NCCCN1CCOCC1)c1cn2c3c(c(NCCN4CCCC4)c(F)cc3c1=O)Oc1cc3ccccc3cc1-2` [compound 69], the IC50 was found to be 2.5 µM. On the same count and under the same terms, under `O=C(c1cn2c3c(c(NCCN4CCCCC4)c(F)cc3c1=O)Oc1cc3ccccc3cc1-2)N1CCOCC1` [compound 115] stands 1.75 µM; under `O=C(Nc1nnc(C(F)(F)F)s1)c1cn2c3c(c(NCCN4CCCC4)c(F)cc3c1=O)Oc1ccccc1-2` [compound 46], 2.5 µM. The same measure, in the same setting: the figure for `CC1CCCN(CCCNc2c(F)cc3c(=O)c(C(=O)NCCC4CCCN4C)cn4c3c2Oc2cc3ccccc3cc2-4)C1` (centres unmarked) [compound 295] is 1.75 µM; for `CN(CCc1ccccn1)C(=O)c1ccc2c(c1)Oc1c(NCCCn3ccnc3)c(F)cc3c(=O)c(C(=O)N(C)CCc4ccccn4)cn-2c13` [compound 39] it is 2.5 µM. Consider `CC(C)(C)OC(=O)N[C@H]1CCN(c2c(F)cc3c(=O)c(C(=O)NCCCN4CCOCC4)cn4c5cc6c(cc5oc2c34)c(=O)c2ccccc26)C1` [compound 204], for which the IC50 is 1.75 µM.
